Measured values reported in ChEMBL document CHEMBL5252512, “Recent Progress in the Development of HIV-1 Protease Inhibitors for the Treatment of HIV/AIDS” (J Med Chem, 2016).

Assays:
[1] = system: Human immunodeficiency virus 1; experiment: Antiviral activity against wild type HIV1 ERS104pre infected in human PBMC cells assessed as inhibition of virus-induced cytopathic effect measured after 7 days by MTT assay; format: functional, organism-based; conditions: Human immunodeficiency virus 1, ERS104pre, 168 h
[2] = system: Human immunodeficiency virus 1; experiment: Antiviral activity against multidrug-resistant HIV1-G infected in phytohemagglutinin-activated human PBMC cells assessed as inhibition of virus-induced cytopathic effect measured after 7 days by MTT assay; format: functional, organism-based; conditions: Human immunodeficiency virus 1, G, 168 h
[3] = system: Human immunodeficiency virus 1; experiment: Antiviral activity against multidrug-resistant HIV1-MM infected in phytohemagglutinin-activated human PBMC cells assessed as inhibition of virus-induced cytopathic effect measured after 7 days by MTT assay; format: functional, organism-based; conditions: Human immunodeficiency virus 1, MM, 168 h
[4] = system: Human immunodeficiency virus 1; experiment: Antiviral activity against multidrug-resistant HIV1-B infected in phytohemagglutinin-activated human PBMC cells assessed as inhibition of virus-induced cytopathic effect measured after 7 days by MTT assay; format: functional, organism-based; conditions: Human immunodeficiency virus 1, B, 168 h
[5] = system: Human immunodeficiency virus 1; experiment: Antiviral activity against multidrug-resistant HIV1-TM infected in phytohemagglutinin-activated human PBMC cells assessed as inhibition of virus-induced cytopathic effect measured after 7 days by MTT assay; format: functional, organism-based; conditions: Human immunodeficiency virus 1, TM, 168 h
[6] = system: Human immunodeficiency virus 1; experiment: Antiviral activity against multidrug-resistant HIV1-C infected in phytohemagglutinin-activated human PBMC cells assessed as inhibition of virus-induced cytopathic effect measured after 7 days by MTT assay; format: functional, organism-based; conditions: Human immunodeficiency virus 1, C, 168 h
[7] = system: Human immunodeficiency virus 1; experiment: Antiviral activity against multidrug-resistant HIV1-JSL infected in phytohemagglutinin-activated human PBMC cells assessed as inhibition of virus-induced cytopathic effect measured after 7 days by MTT assay; format: functional, organism-based; conditions: Human immunodeficiency virus 1, JSL, 168 h
[8] = system: Human immunodeficiency virus 1; experiment: Antiviral activity against darunavir-resistant HIV1 10P infected in phytohemagglutinin-activated human PBMC cells assessed as inhibition of virus-induced cytopathic effect measured after 7 days by MTT assay; format: functional, organism-based; conditions: Human immunodeficiency virus 1, 10P, 168 h
[9] = system: Human immunodeficiency virus 1; experiment: Antiviral activity against darunavir-resistant HIV1 20P infected in phytohemagglutinin-activated human PBMC cells assessed as inhibition of virus-induced cytopathic effect measured after 7 days by MTT assay; format: functional, organism-based; conditions: Human immunodeficiency virus 1, 20P, 168 h
[10] = molecular target: T1, Human immunodeficiency virus type 1 protease (Human immunodeficiency virus 1, UniProt Q72874); experiment: Binding affinity to HIV1 protease assessed as inhibition constant
[11] = molecular target: T1, Human immunodeficiency virus type 1 protease; experiment: Inhibition of recombinant HIV1 Protease
[12] = system: Human immunodeficiency virus 1; experiment: Ratio of EC50 for antiviral activity against HIV1-G to EC50 for antiviral activity against wild type HIV1 ERS104pre; format: functional
[13] = system: Human immunodeficiency virus 1; experiment: Ratio of EC50 for antiviral activity against HIV1-C to EC50 for antiviral activity against wild type HIV1 ERS104pre; format: functional
[14] = system: Human immunodeficiency virus 1; experiment: Ratio of EC50 for antiviral activity against HIV1-MM to EC50 for antiviral activity against wild type HIV1 ERS104pre; format: functional
[15] = system: Human immunodeficiency virus 1; experiment: Ratio of EC50 for antiviral activity against HIV1-TM to EC50 for antiviral activity against wild type HIV1 ERS104pre; format: functional
[16] = system: Human immunodeficiency virus 1; experiment: Ratio of EC50 for antiviral activity against HIV1-JSL to EC50 for antiviral activity against wild type HIV1 ERS104pre; format: functional
[17] = system: Human immunodeficiency virus 1; experiment: Ratio of EC50 for antiviral activity against HIV1-B to EC50 for antiviral activity against wild type HIV1 ERS104pre; format: functional
[18] = molecular target: T1, Human immunodeficiency virus type 1 protease; experiment: Binding affinity to wild-type HIV1 protease expressed in Escherichia coli by fluorometric assay

For `CC(C)(C)NC(=O)[C@@H]1C[C@@H]2CCCC[C@@H]2CN1C[C@@H](O)[C@H](Cc1ccccc1)NC(=O)[C@H](CC(N)=O)NC(=O)c1ccc2ccccc2n1`, the EC50 [1] was 0.004 µM, the EC50 [2] was 0.033 µM and the EC50 [3] was 0.11 µM. The EC50 [4] was 0.27 µM, the EC50 [5] was 0.1 µM and the EC50 [6] was 0.035 µM. It also gave an EC50 [7] of 0.29 µM.
`CC(C)CN(C[C@@H](O)[C@H](Cc1ccccc1)NC(=O)O[C@H]1CCOC1)S(=O)(=O)c1ccc(N)cc1` showed an EC50 [1] of 0.029 µM, an EC50 [2] of 0.31 µM and an EC50 [3] of 0.27 µM. For the same compound, the EC50 [8] was > 1 µM, the EC50 [4] was 0.36 µM and the EC50 [9] was > 1 µM. For the same compound, the EC50 [5] was 0.3 µM, the EC50 [6] was 0.21 µM and the EC50 [7] was 0.43 µM.
With `COc1ccc(S(=O)(=O)N(CC(C)C)C[C@@H](O)[C@H](Cc2ccccc2)n2cc(CNC(=O)c3ccc(CNC(=O)OC(C)(C)C)cc3)nn2)cc1` the Ki [10] was 0.004 µM and the IC50 [11] was 0.013 µM.
In the case of `CC(C)CN(C[C@@H](O)[C@H](Cc1ccccc1)NC(=O)O[C@H]1CO[C@H]2OCC[C@H]21)S(=O)(=O)c1ccc2c(c1)OCO2`, the EC50 [1] is reported as 0.0005 µM, the EC50 [2] is reported as 0.0034 µM and the EC50 [3] is reported as 0.0038 µM. For the same compound, the “Ratio EC50” value [12] was 7, the “Ratio EC50” value [13] was 5 and the EC50 [4] was 0.0039 µM. The “Ratio EC50” value [14] was 8, the “Ratio EC50” value [15] was 6 and the EC50 [5] was 0.0032 µM. For the same compound, the “Ratio EC50” value [16] was 12, the EC50 [6] was 0.0027 µM and the EC50 [7] was 0.006 µM. For the same compound, the “Ratio EC50” value [17] was 8.
`C[C@H](Cc1cc2c(cc1O)OCO2)[C@H](C)Cc1cc2c(cc1O)OCO2` showed an IC50 [11] of 5.6 µM.
For `COc1ccc(S(=O)(=O)N(CC(C)C)C[C@@H](O)[C@H](Cc2ccccc2)n2cc(COC(=O)N[C@H]3c4ccccc4C[C@H]3O)nn2)cc1`, the Ki [10] was 0.0017 µM and the IC50 [11] was 0.006 µM.
With `CC(C)C[C@H](NC(=O)[C@@H](NC(=O)CCCCCCCCCCCCCCC(=O)N[C@@H](CC(N)=O)C(=O)N[C@@H](Cc1ccccc1)C(=O)O)[C@@H](C)O)C(=O)NCCc1ccc(Oc2ccc(O)cc2)cc1` the IC50 [11] was 0.096 µM.
`O=S1(=O)N(Cc2ccccc2-c2cc3ccccc3o2)C[C@H](O)[C@@H](O)CN1Cc1ccccc1-c1cc2ccccc2o1` gave a Ki [18] of 0.53 µM.
With `NC(=O)CN(Cc1ccc(N)cc1)C(=O)CN(CC1CCCCC1)C(=O)CN(Cc1ccc(N)cc1)C(=O)CCCCCCCCCCCCCCC(=O)N(CC(=O)N(CC(=O)O)Cc1ccccc1)Cc1ccc(N)cc1` the Ki [10] was 0.135 µM.
Work on `O=C(Cc1cccc2ccccc12)Nc1ccccc1CN1C[C@H](O)[C@@H](O)CN(Cc2ccccc2Br)S1(=O)=O` yielded a Ki [18] of 0.28 µM.
`CC(C)C[C@H](NC(=O)[C@@H](NC(=O)CCCCCCCCCCCCCCC(=O)N[C@@H](CC(N)=O)C(=O)N[C@@H](Cc1ccccc1)C(=O)O)[C@@H](C)O)C(=O)NCCc1cccc(O)c1` gave an IC50 [11] of 1.13 µM.
`O=C(Cc1cccc2ccccc12)O[C@H]1CNC[C@@H]1OC(=O)Cc1cccc2ccccc12` was tested, and the Ki [10] was 20 µM.
With `COC(=O)[C@@H](NC(=O)[C@H](CC(C)C)NC(=O)[C@@H](NC(=O)CCCOc1ccc2ccc(OCCCC(=O)N[C@H](CCCCNC(=O)OCc3ccccc3)C(=O)NNC(=O)c3cc(NC(C)=O)ccc3OC)cc2c1)C(C)C)C(C)C` the Ki [10] was 0.06 µM.
With `O=C(Cc1cccc2ccccc12)Nc1ccccc1CN1C[C@H](O)[C@@H](O)CN(Cc2ccccc2)S1(=O)=O` the Ki [18] was 0.14 µM.
